# Tested on: HEK293 NOD2/MDP-induced NF-kB reporter, inhibition
# Experiment: NOD2 signaling inhibitors, analog potency, SAR follow-up, cell-based, set 3 (AID 2799)
smiles,measurement,value
CCCCn1c(SCC(=O)Nc2nnc(CC)s2)nc2c1c(=O)n(C)c(=O)n2C,IC50,7.12 µM
